≈ marks a conversion by molar mass, not a printed value. Where a SMILES comes first, the peptide text is derived from it. Bridges are numbered along the chain shown (N, C = ends). Roman numbers before positions name the chains, in order. [ ]: non-standard residue; d: D form. Thr(ol) = C[C@@H](O)[C@H](N)CO; Tle = CC(C)(C)[C@H](N)C(=O)O; Hiv = CC(C)[C@H](O)C(=O)O; dDab = NCC[C@@H](N)C(=O)O; Orn = NCCC[C@H](N)C(=O)O; Dab = NCC[C@H](N)C(=O)O; Dap = NC[C@H](N)C(=O)O
Columns and labels:
[1] = tested on: Acinetobacter baumannii 872842; format: cell-based; settings: 872842
How it was run: (§1)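 Visible-growth endpoint after 18-20 h at 35° C defines the MIC (μg/mL). Setup: CLSI broth microdilution, MH-II cation-adjusted broth with P-80 at 0.002% final, inoculum of approximately 10^6 CFU/mL, two-fold serial peptide dilutions.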

[2] = tested on: Acinetobacter baumannii DSM 30008; format: cell-based; settings: DSM 30008
How it was run: as §1

[3] = tested on: Enterobacter cloacae 848840; format: cell-based; settings: 848840
How it was run: as §1

Escherichia coli 926415 = format: cell-based; settings: 926415
How it was run: as §1

[4] = tested on: Escherichia coli ATCC 25922; format: cell-based; settings: ATCC 25922
How it was run: as §1

[5] = tested on: Klebsiella pneumoniae 968733; format: cell-based; settings: 968733
How it was run: as §1

[6] = tested on: Klebsiella pneumoniae SSI #3010; format: cell-based; settings: SSI #3010
How it was run: as §1

[7] = tested on: Pseudomonas aeruginosa ATCC 27853; format: cell-based; settings: ATCC 27853
How it was run: as §1

[8] = tested on: human red blood cells (hRBC); assay: Hemolysis; format: cell-based; settings: red cells of human, 1 h, 200
How it was run: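 hRBC washed 4× in PBS; 200 μg/mL peptide + 20% (v/v) hRBC, 1 h, 37° C, 300 rpm. Spin, supernatant ~7.5-fold diluted, OD540 blank corrected. % hemolysis = OD540 peptide / OD540 Triton X-100 × 100.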

male ICR mice = assay: Tolerability in a mouse model (Maximum Tolerated Dose assay); format: in vivo; settings: 2 × 30 mg/kg s.c. at a 12-hr interval, groups of 3
Procedure: The tolerability of the peptides was tested in a mouse model at Pharmacology Discovery Services Taiwan Ltd, Taipei, Taiwan. The peptides were administered subcutaneously (s.c.) at 30 mg/kg or 40 mg/kg, respectively; twice at a 12-hr interval, for assessment of possible adverse effects in the Maximum Tolerated Dose (MTD) assay in male ICR (Institute of Cancer Research) mice. The peptides were dissolved in 0.9% NaCl at the concentrations either of 6 or 8 mg/mL, respectively, based on the free base molecular weight. The pH values of dosing solutions were adjusted to 6.5-7.6 before s.c. administration. A dosing volume at 5 mL/kg and a concentration of 6 or 8 mg/mL, respectively, was applied. The fresh prepared stock solution were stored at 4° C. during the study. Male ICR mice weighing 23±3 g were provided by BioLasco Taiwan (under Charles River Laboratories Licensee). Animals were acclimated for 3 days prior to use and were confirmed to be in good health. The peptides were administered s.c. at 30 mg/kg or 40 mg/kg, respectively, twice at a 12-hr interval, to groups of 3 ICR male mice and observed for the presence of acute toxic symptoms (mortality, convulsions, tremors, muscle relaxation, sedation, etc.) and autonomic effects (diarrhea, salivation, lacrimation, vasodilation, piloerection, etc.) during the first 30 min. The peptides were administered again at a 12-hr (two total doses) interval, following the first dose. The animals were then observed again for the presence of acute toxic symptoms and autonomic effects during the first 30 min.

SMILES	MIC [1]	MIC [2]	MIC [3]	MIC (Escherichia coli 926415)	MIC [4]	MIC [5]	MIC [6]	MIC [7]	Hemolysis at 200 μg/mL [8]	Mortality and dose (male ICR mice)
CC(=O)N[C@H](C(=O)N[C@H]1CSSC[C@@H](C(=O)N[C@@H](CO)C(N)=O)NC(=O)[C@H](C(C)C)NC(=O)[C@H](CCC(=O)O)NC(=O)[C@H](Cc2c[nH]c3ccccc23)NC(=O)[C@H](CO)NC(=O)[C@@H](CCN)NC(=O)[C@H](CCC(=O)N[C@@H](CCN)C(=O)N[C@H](C(=O)N[C@@H](CN)C(=O)N[C@H]2CCNC(=O)[C@H]([C@@H](C)O)NC(=O)[C@H](CCN)NC(=O)[C@H](CCN)NC(=O)[C@H](CC(C)C)NC(=O)[C@@H](CC(C)C)NC(=O)[C@H](CCN)NC2=O)[C@@H](C)O)NC(=O)[C@H](CCN)NC(=O)[C@H](Cc2ccc(O)cc2)NC1=O)C(C)C [Ex. 150] (I: Ac-VCY[Dab]E[dDab]SWEVCS-NH2 / II: [Dab]T[Dap][Dab][Dab][dL]L[Dab][Dab]T; disulfide I:2-I:11; amide I:5-II:N; lactam II:4-II:C)	0.125 mg/L (≈ 0.0512 µM)	0.0625 mg/L (≈ 0.0256 µM)	0.125 mg/L (≈ 0.0512 µM)	0.25 mg/L (≈ 0.102 µM)	0.03125 mg/L (≈ 0.0128 µM)	0.5 mg/L (≈ 0.205 µM)	0.125 mg/L (≈ 0.0512 µM)	0.125 mg/L (≈ 0.0512 µM)	<1%	0/3 died at 2 × 30 mg/kg
CC(C)C[C@@H]1NC(=O)[C@@H](CC(C)C)NC(=O)[C@H](CCN)NC(=O)[C@@H](NC(=O)[C@H](CN)NC(=O)[C@@H](NC(=O)[C@H](CCN)NC(=O)CC[C@H]2NC(=O)[C@H](CCCN)NC(=O)[C@H](CCN)NC(=O)[C@H](Cc3ccc(O)cc3)NC(=O)[C@@H](NC(=O)[C@@H](O)C(C)C)CSSC[C@@H](C(=O)N[C@H](C(N)=O)[C@@H](C)O)NC(=O)[C@H](C(C)(C)C)NC(=O)[C@H](CO)NC(=O)[C@H](Cc3c[nH]c4ccccc34)NC(=O)[C@H]([C@@H](C)O)NC2=O)[C@@H](C)O)CCNC(=O)[C@H]([C@@H](C)O)NC(=O)[C@H](CCN)NC(=O)[C@H](CCN)NC1=O [Ex. 161] (I: H-[Hiv]CY[Dab][Orn][dE]TWS[Tle]CT-NH2 / II: [Dab]T[Dap][Dab][Dab][dL]L[Dab][Dab]T; disulfide I:2-I:11; amide I:6-II:N; lactam II:4-II:C)	0.25 mg/L (≈ 0.104 µM)	0.125 mg/L (≈ 0.0518 µM)	1 mg/L (≈ 0.414 µM)	0.5 mg/L (≈ 0.207 µM)	0.125 mg/L (≈ 0.0518 µM)	0.25 mg/L (≈ 0.104 µM)	0.125 mg/L (≈ 0.0518 µM)	0.25 mg/L (≈ 0.104 µM)	1%	0/3 died at 2 × 30 mg/kg
CC(C)C[C@@H]1NC(=O)[C@@H](CC(C)C)NC(=O)[C@H](CCN)NC(=O)[C@@H](NC(=O)[C@H](CCN)NC(=O)[C@@H](NC(=O)[C@H](CCN)NC(=O)CC[C@@H]2NC(=O)[C@@H](NC(=O)[C@H](Cc3ccc(O)cc3)NC(=O)[C@@H](NC(=O)[C@@H](O)C(C)C)[C@@H](C)O)CSSC[C@@H](C(=O)N[C@H](C(=O)N[C@@H](C)C(=O)N[C@H](CO)[C@@H](C)O)C(C)(C)C)NC(=O)[C@H](Cc3c[nH]c4ccccc34)NC(=O)[C@H]([C@@H](C)O)NC(=O)[C@@H](CCN)NC2=O)[C@@H](C)O)CCNC(=O)[C@H]([C@@H](C)O)NC(=O)[C@H](CCN)NC(=O)[C@H](CCN)NC1=O [Ex. 188] (I: H-[Hiv]TYCE[dDab]TWC[Tle]A[Thr(ol)] / II: [Dab]T[Dab][Dab][Dab][dL]L[Dab][Dab]T; disulfide I:4-I:9; amide I:5-II:N; lactam II:4-II:C)	0.5 mg/L (≈ 0.21 µM)	0.125 mg/L (≈ 0.0524 µM)	0.5 mg/L (≈ 0.21 µM)	0.5 mg/L (≈ 0.21 µM)	0.0625 mg/L (≈ 0.0262 µM)	1 mg/L (≈ 0.419 µM)	0.25 mg/L (≈ 0.105 µM)	0.5 mg/L (≈ 0.21 µM)	<1%	0/3 died at 2 × 30 mg/kg
